Literature values, collected in the Kinase Knowledgebase extract (Sharma et al. 2016).

Target: MAPK14 (human) (UniProt Q16539)
Assay: Assessment of MAPK14 Kinase Activity

Chain of MAPK14 (human) (Q16539 whole entry, looked up): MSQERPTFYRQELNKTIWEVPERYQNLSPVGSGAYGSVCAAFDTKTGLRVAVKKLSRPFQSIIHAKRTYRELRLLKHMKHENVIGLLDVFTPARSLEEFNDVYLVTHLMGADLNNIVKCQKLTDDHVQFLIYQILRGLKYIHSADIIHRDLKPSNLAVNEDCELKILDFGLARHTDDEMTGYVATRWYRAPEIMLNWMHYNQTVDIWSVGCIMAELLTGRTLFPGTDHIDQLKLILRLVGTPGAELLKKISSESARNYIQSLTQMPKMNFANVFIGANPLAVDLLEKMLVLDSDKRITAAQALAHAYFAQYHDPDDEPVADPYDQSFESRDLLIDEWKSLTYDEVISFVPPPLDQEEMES

IC50	SMILES
0.6 nM	CCn1c(=O)c(-c2cc(C(=O)NC3CC3)ccc2C)cc2cnn(-c3ccc(F)cc3F)c21
2.3 nM	Cc1ccc(C(=O)NC2CC2)cc1-c1cc2cnn(-c3ncccc3C(F)(F)F)c2n(C)c1=O
1.9 nM	Cc1ccc(C(=O)NC2CC2)cc1-c1cc2cnn(-c3ccccc3C)c2n(C)c1=O
0.899 nM	Cc1ccc(C(=O)NC2CC2)cc1-c1cc2cnn(-c3ccccc3Cl)c2n(C)c1=O
1.9 nM	Cc1ccc(C(=O)NC2CC2)cc1-c1cc2cnn(-c3cc(F)ccc3F)c2n(C)c1=O

More lines, now with the values behind:

SMILES	IC50
CNc1noc2c(-c3cc4cnn(-c5c(F)cccc5F)c4n(C)c3=O)c(C)ccc12	2 nM
Cc1ccc(C(=O)NC2(C)CC2)cc1-c1cc2cnn(-c3c(F)cccc3F)c2n(C)c1=O	1.7 nM
Cc1ccc(C(=O)O)cc1Nc1cc(=O)n(C)c2c1cnn2-c1ccc(F)cc1F	1000 nM
Cn1c(=O)cc(NC2CCOCC2)c2cnn(-c3cccc(F)c3)c21	1000 nM
Cc1ccc(C(=O)Nc2ccon2)cc1-c1cc2cnn(-c3c(F)cccc3F)c2n(C)c1=O	1 nM
Cn1c(=O)cc(Nc2ccc(F)cc2F)c2cnn(-c3ccc(F)cc3F)c21	1000 nM
Cc1ccc(C(N)=O)cc1-c1cc2cnn(-c3c(F)cccc3F)c2n(C)c1=O	1.5 nM
Cn1c(=O)cc(Nc2ccc(F)cc2)c2cnn(-c3c(F)cccc3F)c21	1000 nM
Cc1c(F)cc(C(=O)NC2CC2)cc1-c1cc2cnn(-c3c(F)cccc3F)c2n(C)c1=O	0.8 nM
